Data published in patent publication US20140323296A1, “Pesticide Compositions and Methods for Their Use” (priority 2004, published 2014).
Like-named read-outs stand apart in the source and are kept apart here.

Columns and labels:
Conditions in all cases: in vivo
[1] = test system: tomato plants (Lycopersicon esculentum var. Celebrity Hybrid, NK)
Description: (§1) In general, tomato plants were contacted with three different treatment formulations: (1) the clorothalonil fungicide BRAVO WEATHER STIK with water and surfactant, (2) a fungicide phytotoxicity reducing formulation according to the subject invention, i.e., BRAVO WEATHER STIK/water/sucrose/surfactant, and (3) sucrose/water. An untreated control was also evaluated.
1) Seven week old potted tomato plants (Lycopersicon esculentum var. Celebrity Hybrid, NK) 2) Clorothalonil 47% a.i. (BRAVO WEATHER STIK) made up in a concentration equivalent to 2 pints per 100 gallons water+Organosilicone Surfactant (SILWET L-77) at 3 oz per 100 gallons 3) BRAVO WEATHER STIK at 2 pints per 100 gallons spray mix+SILWET L-77 at 3 oz per 100 gallons+Sucrose at 25 lbs per 100 gallons 4) Sucrose at 25 lbs per 100 gallons+SILWET L-77 at 3 oz per 100 gallons

[2] = test system: tomato plants (Lycopersicon esculentum var. Celebrity Hybrid, NK); assay: IA mitigation of insecticide phytotoxicity: KRYOCIDE with or without sucrose sprayed on potted tomato plants, vigor and appearance rating
Description: In general, tomato plants were contacted with three different treatment formulations: (1) the sodium aluminofluoride insecticide KRYOCIDE with water and surfactant, (2) an insecticide phytotoxicity reducing formulation according to the subject invention, i.e., KRYOCIDE/water/sucrose/surfactant, and (3) sucrose/water. An untreated control was also evaluated.
1) Nine week old potted tomato plants (Lycopersicon esculentum var. Celebrity Hybrid, NK) 2) Sodium Aluminofluoride 96% a.i. (KRYOCIDE) made up in a concentration equivalent to 15 lbs per 100 gallons water+Organosilicone Surfactant (Silwet L-77) at 3 oz per 100 gallons 3) KRYOCIDE at 15 lbs per 100 gallons spray mix+SILWET L-77 at 3 oz per 100 gallons spray mix+Sucrose at 25 lbs per 100 gallons spray mix 4) Sucrose at 25 lbs per 100 gallons spray mix+SILWET L-77 at 3 oz per 100 gallons

[3] = test system: Mung Bean plants (Phaseolus aureus); assay: IB mitigation of bactericide-fungicide phytotoxicity: KOCIDE with or without sucrose sprayed on potted mung bean plants, leaf russeting, vigor and appearance rating
Description: In general, mung bean plants were contacted with three different treatment formulations: (1) the copper hydroxide bactericide-fungicide KOCIDE with water and surfactant, (2) a bactericide-fungicide phytotoxicity reducing formulation according to the subject invention, i.e., KOCIDE/water/sucrose/surfactant, and (3) sucrose/water. An untreated control was also evaluated.
1) Three week old potted Mung Bean plants (Phaseolus aureus) 2) Copper Hydroxide 20% a.i. (KOCIDE) made up in a concentration equivalent to 10 lbs per 100 gallons spray mix+Organosilicone Surfactant (SILWET L-77) at 3 oz per 100 gallons 3) KOCIDE at 10 lbs per 100 gallons spray mix+Sucrose at 25 lbs per 100 gallons+SILWET L-77 at 3 oz per 100 gallons 4) Sucrose at 25 lbs per 100 gallons+SILWET L-77 at 3 oz per 100 gallons

[4] = test system: tomato plants (Lycopersicon esculentum var. Celebrity Hybrid, NK); assay: ID mitigation of fungicide phytotoxicity: ORBIT with or without sucrose sprayed on potted tomato plants, vigor, leaf distortion and appearance rating
Description: as §1, with “propiconazole” for “clorothalonil”, “ORBIT” for “BRAVO WEATHER STIK”, “ORBIT/water/sucrose/surfactant,” for “BRAVO WEATHER STIK/water/sucrose/surfactant,”
1) Nine week old potted tomato plants (Lycopersicon esculentum var. Celebrity Hybrid, NK) 2) Propiconazole 41.8% a.i. (ORBIT) made up in a concentration equivalent to 12 oz per 100 gallons water+Organosilicone Surfactant (SILWET L-77) at 3 oz per 100 gal 3) ORBIT at 12 oz per 100 gallons spray mix+SILWET L-77 at 3 oz per 100 gallons+Sucrose at 25 lbs per 100 gallons 4) Sucrose at 25 lbs per 100 gallons+SILWET L-77 at 3 oz per 100 gallons

| Compound | overall vigor and appearance, Mean/Statistical Rank [1] | overall vigor and appearance, Replication 1 [1] | overall vigor and appearance, Replication 2 [1] | overall vigor and appearance, Replication 3 [1] | overall vigor and appearance, Replication 4 [1] | overall vigor and appearance, Mean/Statistical Rank [2] [b] | overall vigor and appearance, Replication 1 [2] | overall vigor and appearance, Replication 2 [2] | overall vigor and appearance, Replication 3 [2] | overall vigor and appearance, Replication 4 [2] | russeting of leaves and overall vigor and appearance, Mean/Statistical Rank [3] [b] | russeting of leaves and overall vigor and appearance, Replication 1 [3] | russeting of leaves and overall vigor and appearance, Replication 2 [3] | russeting of leaves and overall vigor and appearance, Replication 3 [3] | russeting of leaves and overall vigor and appearance, Replication 4 [3] | overall vigor, leaf distortion and appearance, Mean/Statistical Rank [4] [c] | overall vigor, leaf distortion and appearance, Replication 1 [4] | overall vigor, leaf distortion and appearance, Replication 2 [4] | overall vigor, leaf distortion and appearance, Replication 3 [4] | overall vigor, leaf distortion and appearance, Replication 4 [4] |
| --- | --- | --- | --- | --- | --- | --- | --- | --- | --- | --- | --- | --- | --- | --- | --- | --- | --- | --- | --- | --- |
| Clorothalonil [BRAVO WS] | 5.25 a | 5 | 5 | 6 | 5 |  |  |  |  |  |  |  |  |  |  |  |  |  |  |  |
| OC[C@H]1O[C@@](CO)(O[C@H]2O[C@H](CO)[C@@H](O)[C@H](O)[C@H]2O)[C@@H](O)[C@@H]1O [Sucrose] | 10.00 b | 10 | 10 | 10 | 10 | 9.75 | 10 | 9 | 10 | 10 | 10.00 | 10 | 10 | 10 | 10 | 10.00 | 10 | 10 | 10 | 10 |
